Test results: patent US11453703B2, “Heterotandem bicyclic peptide complexes” (BicycleTX Limited, priority 2018, dated 2022)
Starred links: 1 amine or outer side, 2 acyl side, 3 side chain; linkers in the order of their positions; H or OH if unused. Positions of bridges follow the written chain, without caps; N, C: chain ends. Non-standard residues stand in square brackets, D forms with d. Residues, ends and D or L forms follow the SMILES beside them. Chains are numbered I, II in the order given. X1 = O=C(CCc1cn(CCOCCOCCOCCOCCOCCOCCOCCOCCOCCOCCOCCOCCC(=O)[*:2])nn1)NCCC(=O)[*:1]; TATA = O=C(CC[*:1])N1CN(C(=O)CC[*:2])CN(C(=O)CC[*:3])C1; X2 = O=C(CCOCCOCCOCCOCCOCCn1cc(CCC(=O)[*:2])nn1)[*:1]; 1Nal = N[C@@H](Cc1cccc2ccccc12)C(=O)O; Hyp = O=C(O)[C@@H]1C[C@@H](O)CN1; hArg = N=C(N)NCCCC[C@H](N)C(=O)O; tBuAla = CC(C)(C)C[C@H](N)C(=O)O; Nle = CCCC[C@H](N)C(=O)O; Sar = CNCC(=O)O

Experiments:
[1] = target: T1, CD137 (Homo sapiens, UniProt Q07011); assay: CD137 reporter assay, co-culture with EphA2 tumour cells; type: cell-based; design: host or cells: Jurkat reporter cells
Method: Culture medium referred to as R1 media is prepared by adding 1% FBS to RPMI-1640 (component of Promega kit CS196005). Serial dilutions of test articles in R1 are prepared in a sterile 96 well-plate. Use 25 μl per well of test articles or R1 (as a background control) to designated wells in white cell culture plate. Tumour cells* are harvested and resuspended at a concentration of 400,000 cells/mL in R1 media. Twenty five (25) μL/well tumour cells are used in white cell culture plate. Jurkat cells (Promega kit CS196005, 0.5 mL) are thawed in the water bath and then added to 5 ml pre-warmed R1 medium. Twenty five (25) μL/well Jurkat cells are used in white cell culture plate. Incubate the cells and test articles for 6h at 37° C., 5% CO2. At the end of 6 h, add 75 μl/well Bio-Glo™ (Promega) and incubate for 10 min before reading luminescence in a plate reader (Clariostar, BMG). The fold change relative to cells (Jurkat cells+Cell line used in co-culture) is calculated and plotted in GraphPad Prism as log(agonist) vs response to determine EC50 (nM) and Fold Induction over background (Max)

[2] = target: T1, CD137; assay: CD137 reporter assay, co-culture with Nectin-4 tumour cells; type: cell-based; design: host or cells: Jurkat reporter cells; details: tumour target Nectin4, co-culture with H1376, 6 h;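 also: jurkat reporter cells co-cultured with tumour cells and test article for 6 h, luminescence signal relative to Jurkat plus tumour cells lacking test article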
[3] = tumour target EphA2, co-culture with PC3, 6 h
[4] = tumour target EphA2, co-culture with SC-OV-3, 6 h

T1 sequence (Q07011 24-255): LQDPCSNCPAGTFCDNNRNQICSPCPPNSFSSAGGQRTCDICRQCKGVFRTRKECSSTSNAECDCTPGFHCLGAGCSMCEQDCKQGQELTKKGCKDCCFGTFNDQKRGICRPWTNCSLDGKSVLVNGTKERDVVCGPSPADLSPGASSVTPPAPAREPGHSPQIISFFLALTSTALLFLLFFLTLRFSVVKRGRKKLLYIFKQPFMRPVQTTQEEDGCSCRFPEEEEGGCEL

CCCC[C@@H]1NC(=O)[C@H](Cc2ccc(O)cc2)NC(=O)[C@@H]2CCCN2C(=O)[C@H](CC(=O)O)NC(=O)[C@H](C)NC(=O)[C@H](Cc2ccccc2)NC(=O)[C@@H]2CSCCC(=O)N3CN(CN(C3)C(=O)CCSC[C@@H](C(=O)N[C@@H](CNC(=O)CCc3cn(CCOCCOCCOCCOCCOCCC(=O)N[C@@H](C)C(=O)N[C@@H](CCCCNC(=N)N)C(=O)N[C@@H](CC(=O)O)C(=O)N[C@H]4CSCCC(=O)N5CN6CN(C5)C(=O)CCSC[C@H](NC(=O)[C@H](CC(C)C)NC(=O)[C@@H]5CCCN5C(=O)[C@H](CC(N)=O)NC(=O)[C@H](C(C)C)NC(=O)[C@H](CC(C)C)NC(=O)[C@@H]5C[C@@H](O)CN5C4=O)C(=O)N[C@@H](CC(C)C)C(=O)N[C@@H](Cc4c[nH]cn4)C(=O)N4CCC[C@H]4C(=O)N[C@H](CC(=O)O)C(=O)N[C@@H](Cc4c[nH]c5ccccc45)C(=O)N[C@@H](CCCCNC(=N)N)C(=O)N[C@H](C(N)=O)CSCCC6=O)nn3)C(N)=O)NC1=O)C(=O)CCSC[C@H](NC(C)=O)C(=O)N[C@@H](CC(C)(C)C)C(=O)N1CCC[C@H]1C(=O)N[C@@H](CCC(=O)O)C(=O)N[C@H](C)C(=O)N1CCC[C@H]1C(=O)N[C@@H](Cc1ccc(O)cc1)C(=O)N2 [BCY10576]
EC50 [1, 3]: 0.51 nM | Fold Induction over Background [1, 3]: 38 fold

CCCC[C@@H]1NC(=O)[C@H](Cc2ccc(O)cc2)NC(=O)[C@@H]2CCCN2C(=O)[C@H](CC(=O)O)NC(=O)[C@H](C)NC(=O)[C@H](Cc2ccccc2)NC(=O)[C@@H]2CSCCC(=O)N3CN(CN(C3)C(=O)CCSC[C@@H](C(=O)N[C@@H](C)C(N)=O)NC1=O)C(=O)CCSC[C@H](NC(C)=O)C(=O)N[C@@H](CC(C)(C)C)C(=O)N1CCC[C@H]1C(=O)N[C@@H](CCCCNC(=O)CCc1cn(CCOCCOCCOCCOCCOCCC(=O)N[C@@H](C)C(=O)N[C@@H](CCCCNC(=N)N)C(=O)N[C@@H](CC(=O)O)C(=O)N[C@H]3CSCCC(=O)N4CN5CN(C4)C(=O)CCSC[C@H](NC(=O)[C@H](CC(C)C)NC(=O)[C@@H]4CCCN4C(=O)[C@H](CC(N)=O)NC(=O)[C@H](C(C)C)NC(=O)[C@H](CC(C)C)NC(=O)[C@@H]4C[C@@H](O)CN4C3=O)C(=O)N[C@@H](CC(C)C)C(=O)N[C@@H](Cc3c[nH]cn3)C(=O)N3CCC[C@H]3C(=O)N[C@H](CC(=O)O)C(=O)N[C@@H](Cc3c[nH]c4ccccc34)C(=O)N[C@@H](CCCCNC(=N)N)C(=O)N[C@H](C(N)=O)CSCCC5=O)nn1)C(=O)N[C@H](C)C(=O)N1CCC[C@H]1C(=O)N[C@@H](Cc1ccc(O)cc1)C(=O)N2 [BCY10574] (I: A[hArg]DC[Hyp]LVNPLCLHP[dD]W[hArg]C-NH2 / II: Ac-C[tBuAla]PK[dA]PYCFADPY[Nle]CA-NH2; linker I:4-I:11-I:18, II:1-II:8-II:15 via TATA; linker I:N-II:4 via X2)
EC50 [1, 3]: 1 nM | Fold Induction over Background [1, 3]: 32 fold

CCCC[C@@H]1NC(=O)[C@H](Cc2ccc(O)cc2)NC(=O)[C@@H]2CCCN2C(=O)[C@H](CC(=O)O)NC(=O)[C@H](C)NC(=O)[C@H](Cc2ccccc2)NC(=O)[C@@H]2CSCCC(=O)N3CN(CN(C3)C(=O)CCSC[C@@H](C(=O)N[C@@H](CNC(=O)CCOCCOCCOCCOCCOCCOCCOCCOCCOCCOCCOCCOCCOCCOCCOCCOCCOCCOCCOCCOCCOCCOCCOCCOCCOCCC(=O)NCCC(=O)N(C)CC(=O)N(C)CC(=O)N(C)CC(=O)N(C)CC(=O)N(C)CC(=O)N(C)CC(=O)N(C)CC(=O)N(C)CC(=O)N(C)CC(=O)N(C)CC(=O)N[C@@H](C)C(=O)N[C@@H](CCCCNC(=N)N)C(=O)N[C@@H](CC(=O)O)C(=O)N[C@H]3CSCCC(=O)N4CN5CN(C4)C(=O)CCSC[C@H](NC(=O)[C@H](CC(C)C)NC(=O)[C@@H]4CCCN4C(=O)[C@H](CC(N)=O)NC(=O)[C@H](C(C)C)NC(=O)[C@H](CC(C)C)NC(=O)[C@@H]4C[C@@H](O)CN4C3=O)C(=O)N[C@@H](CC(C)C)C(=O)N[C@@H](Cc3c[nH]cn3)C(=O)N3CCC[C@H]3C(=O)N[C@H](CC(=O)O)C(=O)N[C@@H](Cc3c[nH]c4ccccc34)C(=O)N[C@@H](CCCCNC(=N)N)C(=O)N[C@H](C(N)=O)CSCCC5=O)C(N)=O)NC1=O)C(=O)CCSC[C@H](NC(=O)[C@H](C)NC(C)=O)C(=O)N[C@@H]([C@@H](C)CC)C(=O)N[C@@H](CCC(=O)O)C(=O)N[C@@H](CCC(=O)O)C(=O)NCC(=O)N[C@@H](CCC(N)=O)C(=O)N[C@@H](Cc1ccc(O)cc1)C(=O)N2 [BCY9758]
EC50 [1, 4]: 1.2 nM | Fold Induction over Background [1, 4]: 7 fold

CCCC[C@@H]1NC(=O)[C@H](Cc2ccc(O)cc2)NC(=O)[C@@H]2CCCN2C(=O)[C@H](CC(=O)O)NC(=O)[C@H](C)NC(=O)[C@H](Cc2ccccc2)NC(=O)[C@@H]2CSCCC(=O)N3CN(CN(C3)C(=O)CCSC[C@@H](C(=O)N[C@@H](C)C(N)=O)NC1=O)C(=O)CCSC[C@H](NC(C)=O)C(=O)N[C@@H](CC(C)(C)C)C(=O)N1CCC[C@H]1C(=O)N[C@@H](CCCCNC(=O)CCOCCOCCOCCOCCOCCOCCOCCOCCOCCOCCOCCOCCn1cc(CCC(=O)NCCC(=O)N(C)CC(=O)N(C)CC(=O)N(C)CC(=O)N(C)CC(=O)N(C)CC(=O)N(C)CC(=O)N(C)CC(=O)N(C)CC(=O)N(C)CC(=O)N(C)CC(=O)N[C@@H](C)C(=O)N[C@@H](CCCCNC(=N)N)C(=O)N[C@@H](CC(=O)O)C(=O)N[C@H]3CSCCC(=O)N4CN5CN(C4)C(=O)CCSC[C@H](NC(=O)[C@H](CC(C)C)NC(=O)[C@@H]4CCCN4C(=O)[C@H](CC(N)=O)NC(=O)[C@H](C(C)C)NC(=O)[C@H](CC(C)C)NC(=O)[C@@H]4C[C@@H](O)CN4C3=O)C(=O)N[C@@H](CC(C)C)C(=O)N[C@@H](Cc3c[nH]cn3)C(=O)N3CCC[C@H]3C(=O)N[C@H](CC(=O)O)C(=O)N[C@@H](Cc3c[nH]c4ccccc34)C(=O)N[C@@H](CCCCNC(=N)N)C(=O)N[C@H](C(N)=O)CSCCC5=O)nn1)C(=O)N[C@H](C)C(=O)N1CCC[C@H]1C(=O)N[C@@H](Cc1ccc(O)cc1)C(=O)N2 [BCY10568]
Fold Induction over Background [1, 3]: 32 fold

CCCC[C@@H]1NC(=O)[C@H](Cc2ccc(O)cc2)NC(=O)[C@@H]2CCCN2C(=O)[C@H](CC(=O)O)NC(=O)[C@H](C)NC(=O)[C@H](Cc2ccccc2)NC(=O)[C@@H]2CSCCC(=O)N3CN(CN(C3)C(=O)CCSC[C@@H](C(=O)N[C@@H](CNC(=O)CCOCCOCCOCCOCCOCCOCCOCCOCCOCCOCCOCCOCCn3cc(CCC(=O)NCCC(=O)N(C)CC(=O)N(C)CC(=O)N(C)CC(=O)N(C)CC(=O)N(C)CC(=O)N(C)CC(=O)N(C)CC(=O)N(C)CC(=O)N(C)CC(=O)N(C)CC(=O)N[C@@H](C)C(=O)N[C@@H](CCCCNC(=N)N)C(=O)N[C@@H](CC(=O)O)C(=O)N[C@H]4CSCCC(=O)N5CN6CN(C5)C(=O)CCSC[C@H](NC(=O)[C@H](CC(C)C)NC(=O)[C@@H]5CCCN5C(=O)[C@H](CC(N)=O)NC(=O)[C@H](C(C)C)NC(=O)[C@H](CC(C)C)NC(=O)[C@@H]5C[C@@H](O)CN5C4=O)C(=O)N[C@@H](CC(C)C)C(=O)N[C@@H](Cc4c[nH]cn4)C(=O)N4CCC[C@H]4C(=O)N[C@H](CC(=O)O)C(=O)N[C@@H](Cc4c[nH]c5ccccc45)C(=O)N[C@@H](CCCCNC(=N)N)C(=O)N[C@H](C(N)=O)CSCCC6=O)nn3)C(N)=O)NC1=O)C(=O)CCSC[C@H](NC(C)=O)C(=O)N[C@@H](CC(C)(C)C)C(=O)N1CCC[C@H]1C(=O)N[C@@H](CCC(=O)O)C(=O)N[C@H](C)C(=O)N1CCC[C@H]1C(=O)N[C@@H](Cc1ccc(O)cc1)C(=O)N2 [BCY9173]
Fold Induction over Background [1, 4]: 21 fold

CCCC[C@@H]1NC(=O)[C@H](Cc2ccc(O)cc2)NC(=O)[C@@H]2CCCN2C(=O)[C@H](CC(=O)O)NC(=O)[C@H](C)NC(=O)[C@H](Cc2ccccc2)NC(=O)[C@@H]2CSCCC(=O)N3CN(CN(C3)C(=O)CCSC[C@@H](C(=O)N[C@@H](C)C(N)=O)NC1=O)C(=O)CCSC[C@H](NC(C)=O)C(=O)N[C@@H](CC(C)(C)C)C(=O)N1CCC[C@H]1C(=O)N[C@@H](CCC(=O)O)C(=O)N[C@H](CCCCNC(=O)CCOCCOCCOCCOCCOCCOCCOCCOCCOCCOCCOCCOCCn1cc(CCC(=O)NCCC(=O)N(C)CC(=O)N(C)CC(=O)N(C)CC(=O)N(C)CC(=O)N(C)CC(=O)N(C)CC(=O)N(C)CC(=O)N(C)CC(=O)N(C)CC(=O)N(C)CC(=O)N[C@@H](C)C(=O)N[C@@H](CCCCNC(=N)N)C(=O)N[C@@H](CC(=O)O)C(=O)N[C@H]3CSCCC(=O)N4CN5CN(C4)C(=O)CCSC[C@H](NC(=O)[C@H](CC(C)C)NC(=O)[C@@H]4CCCN4C(=O)[C@H](CC(N)=O)NC(=O)[C@H](C(C)C)NC(=O)[C@H](CC(C)C)NC(=O)[C@@H]4C[C@@H](O)CN4C3=O)C(=O)N[C@@H](CC(C)C)C(=O)N[C@@H](Cc3c[nH]cn3)C(=O)N3CCC[C@H]3C(=O)N[C@H](CC(=O)O)C(=O)N[C@@H](Cc3c[nH]c4ccccc34)C(=O)N[C@@H](CCCCNC(=N)N)C(=O)N[C@H](C(N)=O)CSCCC5=O)nn1)C(=O)N1CCC[C@H]1C(=O)N[C@@H](Cc1ccc(O)cc1)C(=O)N2 [BCY10570]
EC50 [1, 3]: 0.41 nM | Fold Induction over Background [1, 3]: 38 fold

I: [Sar][Sar][Sar][Sar][Sar][Sar][Sar][Sar][Sar][Sar]CP[1Nal][dD]CM[hArg]DWSTP[Hyp]WC-NH2 / II: Ac-C[tBuAla]PK[dA]PYCFADPY[Nle]CA-NH2 (linker I:11-I:15-I:25, II:1-II:8-II:15 via TATA; linker I:N-II:4 via X1) [BCY10567]
Fold Induction over Background [2]: 45 fold
